According to patent US9296711B2, “Substituted isoxazole amide compounds as inhibitors of stearoyl-CoA desaturase 1 (SCD1)” (Hoffman-La Roche Inc., priority 2012, dated 2016):
pIC50: −log10 of the molar value.

Target: T1, SCD1 (Mus musculus, UniProt P13516)
T1 construct: Mouse liver microsomes, prepared from mice fed a high-carbohydrate diet, were a source of the SCD; from tissue; host or cells: mouse liver microsomes (mice fed a high-carbohydrate diet)
T1 sequence (P13516 1-355): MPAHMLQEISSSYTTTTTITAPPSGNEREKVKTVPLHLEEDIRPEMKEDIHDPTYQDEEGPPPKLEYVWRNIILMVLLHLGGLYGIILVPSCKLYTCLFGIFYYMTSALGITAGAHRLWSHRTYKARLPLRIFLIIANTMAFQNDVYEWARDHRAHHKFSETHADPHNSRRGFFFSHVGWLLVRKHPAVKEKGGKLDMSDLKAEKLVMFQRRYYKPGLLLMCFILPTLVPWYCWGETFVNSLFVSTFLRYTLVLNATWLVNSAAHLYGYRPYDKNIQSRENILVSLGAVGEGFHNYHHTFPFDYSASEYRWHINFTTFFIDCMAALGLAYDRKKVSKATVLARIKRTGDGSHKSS
Assay: SCD assay: release of tritiated water from desaturation of 9,10-3H-stearoyl CoA by mouse liver microsomes
Type: biochemical
Settings: mouse liver microsomes as SCD source; 300 nM (9,10)3H-stearoyl CoA; 25 minutes at room temperature; read-out: IC50 (in vitro inhibition of SCD1)
Description: Stearoyl CoA desaturase activity was monitored by a modification of the acyl carrier protein assay described by B. R. Talamo and K. Bloch in Anal. Biochem. 1968, 29, 300-304. The SCD assay monitors the release of tritiated water from the desaturation of 9,10-^3H-stearoyl CoA.
Mouse liver microsomes, prepared from mice fed a high-carbohydrate diet, were a source of the SCD and cyt b5 and cyt b5 reductase, necessary accessory proteins for the coupled reaction. Reaction mixtures for compound titrations contained 50 mM Tris HCl pH 7.5, 100 mM NaCl, 0.165 mg/ml BSA, 2.4% DMSO, 1 mM NADH, 0.03% T-20, and 300 nM (9,10)^3H-stearoyl CoA (Perkin-Elmer). Reactions were initiated upon the addition of 4 ug/ml SCD microsomes. Incubations were terminated after 25 minutes at room temperature with cold 6% TCA. After standing 10 minutes at 4° C., samples were centrifuged 15 minutes at 4000 rpm to pellet precipitated protein. Supernatants were added to microtiter plates containing suspensions of activated charcoal (Darco G-60, Fisher Scientific) and mixed by inversion. Plates were then centrifuged to separate ^3H—H2O product from charcoal-bound reactants. Supernatants were quantitated in a Perkin Elmer Topcount 384 after solubilization in ScintiSafe Plus 50% (Fisher Scientific).
Inhibition (%) of SCD activity by compounds was calculated according to the following formula: % Inhibition=100*[1−(CPMsample−CPMblank)/(CPMtotal−CPMblank)]

pIC50	SMILES
6.35	NC(=O)c1cc(-c2ccc(OCc3cccc(F)c3)cc2)no1 [Example 16, 3-[4-(3-Fluoro-benzyloxy)-phenyl]-isoxazole-5-carboxylic acid amide]
6.55	Cc1cc(F)ccc1OCc1ccc(-c2cc(C(N)=O)on2)cc1 [Example 42, 3-[4-(4-Fluoro-2-methyl-phenoxymethyl)-phenyl]-isoxazole-5-carboxylic acid amide]
7.26	Cc1ccc(F)cc1OCc1ccc(-c2cc(C(N)=O)on2)cc1 [Example 43, 3-[4-(5-Fluoro-2-methyl-phenoxymethyl)-phenyl]-isoxazole-5-carboxylic acid amide]
5.96	Cc1ncccc1OCc1ccc(-c2cc(C(N)=O)on2)cc1 [Example 44, 3-[4-(2-Methyl-pyridin-3-yloxymethyl)-phenyl]-isoxazole-5-carboxylic acid amide]
7.51	NC(=O)c1cc(-c2ccc(CN3CCc4ccccc43)cc2)no1 [Example 45, 3-[4-(2,3-Dihydro-indol-1-ylmethyl)-phenyl]-isoxazole-5-carboxylic acid amide]
5.55	NC(=O)c1cc(-c2ccc(CN3Cc4ccccc4C3)cc2)no1 [Example 46, 3-[4-(1,3-Dihydro-isoindol-2-ylmethyl)-phenyl]-isoxazole-5-carboxylic acid amide]
7.77	NC(=O)c1cc(-c2ccc(Cn3ccc4ccccc43)cc2)no1 [Example 47, 3-(4-Indol-1-ylmethyl-phenyl)-isoxazole-5-carboxylic acid amide]
6.64	NC(=O)c1cc(-c2ccc(Cn3nnc4ccccc43)cc2)no1 [Example 48, 3-(4-Benzotriazol-1-ylmethyl-phenyl)-isoxazole-5-carboxylic acid amide]
7.14	NC(=O)c1cc(-c2ccc(Cn3cnc4ccccc43)cc2)no1 [Example 49, 3-(4-Benzoimidazol-1-ylmethyl-phenyl)-isoxazole-5-carboxylic acid amide]
7.13	NC(=O)c1cc(-c2ccc(Cn3ncc4ccccc43)cc2)no1 [Example 50, 3-(4-Indazol-1-ylmethyl-phenyl)-isoxazole-5-carboxylic acid amide]
7.33	NC(=O)c1cc(-c2ccc(Cn3cc4ccccc4n3)cc2)no1 [Example 51, 3-(4-Indazol-2-ylmethyl-phenyl)-isoxazole-5-carboxylic acid amide]
7.62	NC(=O)c1cc(-c2ccc(CN3CCCc4ccccc43)cc2)no1 [Example 52, 3-[4-(3,4-Dihydro-2H-quinolin-1-ylmethyl)-phenyl]-isoxazole-5-carboxylic acid amide]
7.00	CC1Cc2ccccc2N1Cc1ccc(-c2cc(C(N)=O)on2)cc1 (stereo not shown) [Example 53, 3-[4-(2-Methyl-2,3-dihydro-indol-1-ylmethyl)-phenyl]-isoxazole-5-carboxylic acid amide]
6.66	Cc1cccc2c1ccn2Cc1ccc(-c2cc(C(N)=O)on2)cc1 [Example 54, 3-[4-(4-Methyl-indol-1-ylmethyl)-phenyl]-isoxazole-5-carboxylic acid amide]
5.57	NC(=O)c1cc(-c2ccc(OCc3ccccc3C(F)(F)F)c(Cl)c2)no1 [Example 55, 3-[3-Chloro-4-(2-trifluoromethyl-benzyloxy)-phenyl]-isoxazole-5-carboxylic acid amide]

Test system: not given
Assay: not given
Settings: not given

melting point	SMILES
221 to 222 °C	NC(=O)c1cc(-c2ccc(OCc3cccc(F)c3)cc2)no1 [Example 16, 3-[4-(3-Fluoro-benzyloxy)-phenyl]-isoxazole-5-carboxylic acid amide]
